In publication PMC5670154, “Anti-tumor and Anti-angiogenic Ergosterols from Ganoderma lucidum” (Frontiers in Chemistry, 2017):
Like-named read-outs stand apart in the source and are kept apart here.

Key:
[1] = tested on: human hepatocellular carcinoma cells HepG2; test: MTT anti-proliferative assay, HepG2; assay type: cell-based; conditions: for Experimental pIC50: HepG2
Method: (§1) Human breast carcinoma cells MDA-MB-231, human hepatocellular carcinoma cells HepG2, and human lung carcinoma cells A549, were purchased from ATCC, or were gifted by Professor Burton B. Yang from University of Toronto, Canada. The anti-proliferative effect of total extract (GL), fractions (GL1–GL4), and compounds 1–14 on tumor cell lines was evaluated by MTT assay (Franchi et al., [2012]). Total extract (GL) and fractions (GL1–GL4) were evaluated for their anti-proliferative effect on three types of carcinoma cells (MDA-MB-231, HepG2, and A549). Compounds 1–14 were chosen to evaluate for their anti-proliferative effect against MDA-MB-231 and HepG2 cells. Hundred microliters of cells suspension (5 × 10^4 cells/mL) was seeded into wells of a 96-well plate. After being incubated for 4 h, different concentrations of fractions/compounds were added onto the cells and incubated. After 48 h, 150 μL of 3-[4,5-dimethylthiazol-2-yl]-2,5-diphenyl tetrazolium bromide (MTT) solution (Sigma) was added to each well, and cells were kept being incubated for 4 h. After removing the MTT/medium, DMSO (100 μL) of was added to each well and was agitated at 60 rpm for 5 min. The optical density of the assay 96-well plate was read (λ = 540 nm) on a microplate reader.
(§2) IC50-values were calculated and analyzed using SPSS with three replications, each carried out in triplicate. Data were expressed as mean ± SD and analyzed by one-way ANOVA followed by two-tailed Student's t-test. A difference was considered significant at the P < 0.05 or P < 0.01 level.

[2] = tested on: Human breast carcinoma cells MDA-MB-231; test: MTT anti-proliferative assay, MDA-MB-231; assay type: cell-based; conditions: mean ± SD
Method: as §1, §2

HUVECs = test: Anti-angiogenesis activity, MTT assay on HUVECs; assay type: cell-based, human; conditions: for EC50: MTT, 48 h, mean ± SD; for selective inhibition, tumor cells versus HUVECs: comparison of MDA-MB-231/HepG2 and HUVEC values
Method: HUVECs (KeyGEN BioTECH Co., Ltd, Jiangsu, China) were cultured in ECM (endothelial cell medium) with 5% (v/v) FBS, 1% (v/v) ECGS, and 1% penicillin-streptomycin (w/v) at 37°C in a cell incubator. The MTT assay was employed to assess the anti-angiogenic effect of the isolated compounds against HUVECs as described previously with mild modification (Liang et al., [2015]; Nguyen et al., [2015]). Briefly, HUVECs were seeded into a 96-well plate and incubated. Different concentrations of compounds 1–14 were added onto the cells after 4 h, and continued to be co-incubated for 48 h. Next, the cells were co-incubated with MTT (Sigma, St. Louis, MO, USA) to a final concentration of 0.05% for another 4 h. Then, replacing the MTT solution with […] DMSO, and kept the plates being shaken for 3 min. The optical density of each well was measured on a microplate reader at λ = 570 nm.
as §2

[3] = tested on: mouse embryonic fibroblasts (NIH/3T3); test: Cytotoxicity on normal cells NIH/3T3; assay type: cell-based
Method: Anti-proliferative activity evaluation against two types of human cancer cells (MDA-MB-231 and HepG2), HUVECs and mouse embryonic fibroblasts (NIH/3T3, used as normal cells) were then carried out.

[4] = Homo sapiens, HepG2, 48 h, MTT, 48 h, mean ± SD, read-out: IC50 HepG2
[5] = Homo sapiens, HepG2, HepG2, converted from observed IC50s (μM), read-out: Experimental pIC50 (converted)
[6] = Mus musculus, NIH3T3, mean ± SD
[7] = converted from observed IC50s (μM)
[8] = MTT, 48 h, mean ± SD, read-out: IC50 HepG2

Q: What does the source list for CC(C)[C@@H](C)/C=C/[C@@H](C)[C@H]1CCC2=C3[C@H](O)[C@@H]4O[C@@]45C[C@@H](O)CC[C@]5(C)[C@H]3CC[C@@]21C [Compound 10, (3β, 5α, 6α, 7α, 22E)-5,6-epoxy-ergosta-8 (14), 22-diene-3,7-diol]?
A: IC50 [1, 4]: 50.6 ± 5.3 µM; IC50 [1, 5]: 50.6 µM; IC50 ([2]; Homo sapiens, MDA-MB-231, 48 h): 46.7 ± 5.4 µM; EC50 (HUVECs; Homo sapiens, HUVEC): 48.7 ± 2.9 µM; EC50 [3, 6]: 194 ± 9.6 µM

Q: What does the source list for CC(C)[C@@H](C)/C=C/[C@@H](C)[C@H]1CC[C@@H]2[C@]1(C)CC=C1[C@]23C=C[C@]2(C[C@@H](O)CC[C@]12C)OO3 [Compound 13, (3β, 5α, 8α, 22E)-5,8-epidioxy-ergosta-6, 9 (11), 22-trien-3-ol]?
A: IC50 [1, 4]: 44.5 ± 1.3 µM; IC50 [1, 5]: 44.5 µM; IC50 ([2]; Homo sapiens, MDA-MB-231, 48 h): 32.1 ± 3 µM; EC50 (HUVECs; Homo sapiens, HUVEC): 51.6 ± 2.8 µM; EC50 [3, 6]: 293 ± 17.2 µM

Q: CC(C)[C@@H](C)/C=C/[C@@H](C)[C@H]1CC[C@H]2C3=C[C@@H](O)[C@@]4(O)C[C@@H](O)CC[C@]4(C)[C@H]3CC[C@]12C [Compound 4, (3β, 5α, 6β, 22E)-ergosta-7, 22-diene-3,5,6-triol] was tested. Which IC50 [1, 4] did it give?
A: 175 ± 15.9 µM

Q: What about the IC50 [1, 5] of the same compound?
A: 175 µM

Q: What about the IC50 ([2]; Homo sapiens, MDA-MB-231, 48 h) of the same compound?
A: 149 ± 8.7 µM

Q: And the EC50 (HUVECs; Homo sapiens, HUVEC)?
A: 345 ± 13.7 µM

Q: What about the EC50 [3, 6] of the same compound?
A: > 500 µM

Q: “(3β, 5α, 6β, 9α, 22E)-ergosta-7, 22-diene-3, 5, 6, 9-tetrol [Compound 3]” was tested. Which “Experimental pIC50” value [1, 7] did it give?
A: 3.887

Q: What about the IC50 [1, 8] of the same compound?
A: 130 ± 3.4 µM

Q: What about the IC50 ([2]; 48 h) of the same compound?
A: 148 ± 5.8 µM

Q: And the EC50 (HUVECs; read-out: EC50 HUVEC)?
A: 84 ± 6.7 µM

Q: And the “selective inhibition, tumor cells versus HUVECs” value (HUVECs)?
A: selective inhibition against HUVECs

Q: What about the EC50 ([3]; mean ± SD) of the same compound?
A: 365 ± 15.7 µM

Q: With CC(C)[C@@H](C)/C=C/[C@@H](C)[C@H]1CC[C@H]2C3=CC=C4C[C@@H](O)CC[C@]4(C)[C@H]3CC[C@]12C [Compound 12, (3β, 22E)-ergosta-5,7, 22-trien-3-ol] as the compound, how does the IC50 [1, 4] read?
A: 75.6 ± 4.7 µM

Q: And the IC50 ([2]; Homo sapiens, MDA-MB-231, 48 h)?
A: 69.7 ± 5.8 µM

Q: And the EC50 (HUVECs; Homo sapiens, HUVEC)?
A: 72.4 ± 5.6 µM

Q: And the EC50 [3, 6]?
A: 261 ± 12 µM

Q: How did the IC50 [1, 4] turn out when CC(C)[C@@H](C)/C=C/[C@@H](C)[C@H]1CC[C@@H]2[C@]1(C)CC[C@H]1[C@]23C=C[C@]2(C[C@@H](O)CC[C@]12C)OO3 [Compound 11, (3β, 5α, 8α, 22E)-5,8-epidioxy-ergosta-6, 22-dien-3-ol] was run?
A: 34.8 ± 2.6 µM

Q: And the IC50 [1, 5]?
A: 34.8 µM

Q: And the IC50 ([2]; Homo sapiens, MDA-MB-231, 48 h)?
A: 44.6 ± 1.9 µM

Q: What about the EC50 (HUVECs; Homo sapiens, HUVEC) of the same compound?
A: 29.1 ± 3.2 µM

Q: And the EC50 [3, 6]?
A: 197 ± 11.3 µM

Q: For “(3β, 5α, 6β, 9α, 14α, 22E)-ergosta-7, 22-diene-3, 5, 6, 9, 14-pentol [Compound 8]”, which “Experimental pIC50” value [1, 7] is on record?
A: 3.543

Q: What about the “decline of activity in comparison with compound 2” value ([1]; HepG2 IC50) of the same compound?
A: approximately 4.6 folds

Q: What about the IC50 [1, 8] of the same compound?
A: 286 ± 18.9 µM

Q: What about the IC50 ([2]; 48 h) of the same compound?
A: 216 ± 14.3 µM

Q: And the EC50 (HUVECs; read-out: EC50 HUVEC)?
A: 357 ± 19.5 µM

Q: And the EC50 ([3]; mean ± SD)?
A: > 500 µM

Q: Which results are given for CC(C)[C@@H](C)/C=C/[C@@H](C)[C@H]1CC[C@H]2C3=C[C@H](O)[C@@]4(O)C[C@@H](O)CC[C@]4(C)[C@@]3(O)CC[C@]12C [Compound 6, (3β, 5α, 6α, 9α, 22E)-ergosta-7, 22-diene-3,5,6,9-tetrol]?
A: IC50 [1, 4]: 185 ± 9.5 µM; IC50 [1, 5]: 185 µM; IC50 ([2]; Homo sapiens, MDA-MB-231, 48 h): 224 ± 10 µM; EC50 (HUVECs; Homo sapiens, HUVEC): 384 ± 10.9 µM; EC50 [3, 6]: > 500 µM

Q: What does the source list for CC(C)[C@@H](C)/C=C/[C@@H](C)[C@H]1CC[C@@]2(O)C3=C(CC[C@]12C)[C@@]1(C)CC[C@H](O)C[C@@]12O[C@H]2C3=O [Compound 14, (3β, 5α, 6α, 14α, 22E)-3, 14-dihydroxy-5,6-epoxy-ergosta-8, 22-dien-7-one]?
A: IC50 [1, 4]: 201 ± 6.4 µM; IC50 ([2]; Homo sapiens, MDA-MB-231, 48 h): 189 ± 8.1 µM; EC50 (HUVECs; Homo sapiens, HUVEC): 321 ± 18.9 µM; EC50 [3, 6]: > 500 µM

Q: How did the “Experimental pIC50” value [1, 7] turn out when “(3β, 5α, 6β, 14α, 22E)-ergosta-7, 9 (11), 22-triene-3, 5, 6, 14-tetrol [Compound 7]” was run?
A: 3.806

Q: What about the IC50 [1, 8] of the same compound?
A: 156 ± 8.9 µM

Q: And the IC50 ([2]; 48 h)?
A: 169 ± 11.1 µM

Q: What about the EC50 (HUVECs; read-out: EC50 HUVEC) of the same compound?
A: 188 ± 15.3 µM

Q: What about the EC50 ([3]; mean ± SD) of the same compound?
A: > 500 µM

Q: Which IC50 [1, 4] does the source give for CC(C)[C@@H](C)/C=C/[C@@H](C)[C@H]1CC[C@H]2C3=C[C@@H](O)[C@@]4(O)C[C@@H](O)CC[C@]4(C)C3=CC[C@]12C [Compound 2, (3β, 5α, 6β, 22E)-ergosta-7, 9 (11), 22-triene-3,5,6-triol] here?
A: < 100 µM

Q: And the IC50 [1, 5]?
A: 62.5 µM

Q: And the IC50 [1, 8]?
A: 62.5 ± 1.3 µM

Q: What about the IC50 ([2]; 48 h) of the same compound?
A: 56.3 ± 1.5 µM

Q: And the IC50 ([2]; Homo sapiens, MDA-MB-231, 48 h)?
A: < 100 µM

Q: And the EC50 (HUVECs; Homo sapiens, HUVEC)?
A: 142 ± 3.6 µM

Q: And the “selective inhibition, tumor cells versus HUVECs” value (HUVECs)?
A: significant selective inhibition against cancer cells

Q: What about the EC50 [3, 6] of the same compound?
A: 303 ± 11.9 µM

Q: For CO[C@@H]1C=C2[C@@H]3CC[C@H]([C@H](C)/C=C/[C@H](C)C(C)C)[C@@]3(C)CC[C@@H]2[C@@]2(C)CC[C@H](O)[C@H]3O[C@@]312 [Compound 1, (22E)-4α, 5α-epoxy-6β-methoxyergosta-7, 22-diene-3β-ol], which IC50 [1, 4] is on record?
A: 138 ± 8.3 µM

Q: And the IC50 [1, 5]?
A: 138 µM

Q: And the IC50 ([2]; Homo sapiens, MDA-MB-231, 48 h)?
A: 176 ± 5.1 µM

Q: And the EC50 (HUVECs; Homo sapiens, HUVEC)?
A: 144 ± 6.1 µM

Q: And the EC50 [3, 6]?
A: 422 ± 9.3 µM

Q: Which IC50 [1, 4] does the source give for O=c1c(O)c(-c2ccc(O)cc2)oc2cc(O)cc(O)c12 [kaempferol, reference compound] here?
A: 45.4 ± 3.4 µM

Q: And the IC50 [1, 5]?
A: 45.4 µM

Q: What about the IC50 ([2]; Homo sapiens, MDA-MB-231, 48 h) of the same compound?
A: 56.6 ± 3.1 µM

Q: What about the EC50 (HUVECs; Homo sapiens, HUVEC) of the same compound?
A: 35.5 ± 4.1 µM

Q: And the EC50 [3, 6]?
A: 356 ± 15.9 µM

Q: CC(C)[C@@H](C)/C=C/[C@@H](C)[C@H]1CC[C@H]2C3=C[C@H](O)[C@@]4(O)C[C@@H](O)CC[C@]4(C)[C@H]3CC[C@]12C [Compound 5, (3β, 5α, 6α, 22E)-ergosta-7, 22-diene-3,5,6-triol] was tested. Which IC50 [1, 4] did it give?
A: 197 ± 20.1 µM

Q: What about the IC50 [1, 5] of the same compound?
A: 197 µM

Q: And the IC50 ([2]; Homo sapiens, MDA-MB-231, 48 h)?
A: 114 ± 9.9 µM

Q: What about the EC50 (HUVECs; Homo sapiens, HUVEC) of the same compound?
A: 206 ± 12.2 µM

Q: What about the EC50 [3, 6] of the same compound?
A: > 500 µM

Q: For CC(C)[C@@H](C)/C=C/[C@@H](C)[C@H]1CC[C@H]2C3=C(CC[C@]12C)[C@@]1(C)CC[C@H](O)C[C@@]12O[C@H]2[C@H]3O [Compound 9, (3β, 5α, 6α, 7α, 22E)-5,6-epoxy-ergosta-8, 22-diene-3,7-diol], which “increase of activity compared with compound 2” value ([1]; HepG2 IC50) is on record?
A: approximately 3 folds

Q: And the IC50 [1, 4]?
A: 22.1 ± 0.9 µM

Q: And the IC50 [1, 5]?
A: 22.1 µM

Q: And the IC50 ([2]; Homo sapiens, MDA-MB-231, 48 h)?
A: 20.3 ± 2.2 µM

Q: What about the EC50 (HUVECs; Homo sapiens, HUVEC) of the same compound?
A: 27.9 ± 1.7 µM

Q: And the EC50 [3, 6]?
A: 183 ± 10.3 µM
